Measurements reported in paper PMC5520944 (Cell Death & Disease, 2017).
Structures can show the parent of a compound that is named as a salt. Where two headings read alike, the source gives them in different places.

Test system: L929sAhFas
Experiment: cells
Set-up: high-content necroptosis screen, percentage PI-positive nuclei as percent of DMSO plus stimulus control
From the text: To identify novel inhibitors or regulators of necroptosis, 500 small compounds from libraries targeting autophagy, kinases, phosphatases, proteases and redox balance were screened for their ability to block TNF-induced necroptosis in murine L929sAhFas cells. Three conditions were used to induce necroptosis in L929 cells: TNF alone, TNF+TAK1 inhibitor (TAK1i) and TNF+zVAD-fmk, a pan-caspase inhibitor. Inhibition of TAK1 or caspases sensitizes to necroptosis.[13], [32] Necroptosis, measured as the percentage of PI-positive nuclei normalized to the plate-specific DMSO control, was determined for each compound (Supplementary Figure 1A). […] After compound treatment, L929sAhFas (a) or L929 (b) cells were stimulated with mTNF (T), mTNF+Tak1i (TiT) or mTNF+zVAD (zVT) (Supplementary Figure 1A and B). (a) Cell death percentage (% PI-positive nuclei) or cell loss was calculated as percent of control (DMSO+stimulus). […] (b) Cell loss (luminescence-based readout for ATP) was calculated as percent of control (DMSO+stimulus). […] In stimulated conditions, % PI-positive nuclei was determined as % of DMSO control. Data represent mean values±S.E.M. of two independent experiments. Cells were stained with Hoechst and PI and percentage PI-positive nuclei was determined using high-content image analysis (BD pathway Bioimager). (d) L929sAhFas cells were treated with Sorafenib (concentration as indicated) for 24 h. Then, stimulus was removed, 50 cells/condition seeded and colonies counted with crystal violet staining after 10 days incubation. […] Schemes of workflow screening assays in L929 cell lines. (A) Scheme of the workflow of a high-content screening assay on L929sAhFas cells using mTNF (T) and mTNF+Tak1i ((5Z)-7-Oxozeaenol) (TiT) to induce necroptotic cell death. Nec-1 and zVAD-fmk were used as protective and sensitizing benchmarks, respectively, on all plates. (B) Scheme of the workflow of a CellTiter-Glo luminescent cell viability screening assay on L929 cells using mTNF+zVAD (zVT) to induce necroptotic cell death. Supplementary Figure S2. Z’ calculation for cell death screening assays in L929 cells. (A) Z’ calculation for cell death screening assay (Fig. 1A) in mTNF-stimulated L929sAhFas cells. (B) Z’ calculation for cell death screening assay (Fig. 1A) in L929sAhFas cells stimulated with mTNF + Taki.

[1] = read-out: cell death TNF/Taki (POC)

SMILES	activity at 10 µM (read-out: cell death TNF (POC))	activity at 10 µM [1]
O=P(O)(O)C(O)c1ccc2ccccc2c1 (centres unmarked) [HNMPA]	80.3%	100%
COc1cccc(-c2cc(=O)c3ccccc3o2)c1N [PD-98059]	70.9%	98.9%
N#CC(C#N)=Cc1ccc([N+](=O)[O-])c(O)c1 [AG-126]	94.7%	99.4%
c1ccc2c(-c3ccncc3)c[nH]c2c1 [Rockout]	106%	99%
N#C/C(=C\c1ccc(O)c(O)c1)C(N)=O [TYRPHOSTIN 46]	97.8%	99.8%
N#CC(C#N)=Cc1cc(O)c(O)c(O)c1 [TYRPHOSTIN 25]	90%	100%
CCN(CC)CCNC(=O)c1c(C)[nH]c(/C=C2\C(=O)Nc3ccc(Cl)cc32)c1C [SU11652]	194%	104%
C=CC(=O)c1ccc2ccccc2c1 [ZM 449829]	87.3%	99.6%
N#C/C(=C\c1ccc(O)c(O)c1)C(N)=S [TYRPHOSTIN 47]	93%	100%
CC(C)(C)n1nc(-c2ccc(Cl)cc2)c2c(N)ncnc21 [PP2]	127%	100%
O=C1Nc2ccc(I)cc2/C1=C/c1cc(Br)c(O)c(Br)c1 [GW 5074]	90%	99.1%
Cc1ccc(NC(=O)c2ccc(CN3CCN(C)CC3)cc2)cc1Nc1nccc(-c2cccnc2)n1 [Imatinib mesylate]	63.9%	96.1%
O=c1cc(N2CCOCC2)oc2c(-c3ccccc3)cccc12 [LY 294002]	85.7%	99.2%
Nc1ncnc2c1c(I)cn2[C@@H]1O[C@H](CO)[C@@H](O)[C@H]1O [5-Iodotubercidin]	229%	101%
Cn1cnc(N)c2ncnc1-2 [3-Methyladenine]	88.7%	102%
COC[C@H]1OC(=O)c2coc3c2[C@@]1(C)C1=C(C3=O)[C@@H]2CCC(=O)[C@@]2(C)C[C@H]1OC(C)=O [Wortmannin]	99.4%	101%
O=c1c(O)c(-c2ccc(O)c(O)c2)oc2cc(O)cc(O)c12 [Quercetin·2H2O]	90.4%	98.5%
C/C(O)=C(\C#N)C(=O)Nc1cc(Br)ccc1Br [LFM-A13]	93.5%	100%
N#CC(C#N)=C(N)/C(C#N)=C/c1cc(O)c(O)c(O)c1 [TYRPHOSTIN 51]	116%	101%
N#CC(C#N)=Cc1cc(O)c(O)c([N+](=O)[O-])c1 [TYRPHOSTIN AG 1288]	81.1%	99.7%
N#CC(=C(/N)Sc1ccccc1N)/C(C#N)=C(\N)Sc1ccccc1N [U-0126]	69.7%	98.7%
N#CC(C#N)=C(N)/C(C#N)=C/c1ccc(O)cc1 [Tyrphostin AG112]	89.4%	98.7%

SMILES	activity at 10 µM (read-out: cell death TNF (POC))	activity at 10 µM [1]
Oc1ccc(-c2nc(-c3ccc(F)cc3)c(-c3ccncc3)[nH]2)cc1 [SB-202190]	110%	96.3%
N#C/C(=C\c1cc(Cl)cc(Cl)c1)c1cccnc1 [RG-14620]	95.9%	99.8%
N#CC(=Cc1ccc2[nH]ccc2c1)C(N)=C(C#N)C#N [AG-370]	86%	99.7%
O=S(=O)(c1cccc2c(I)cccc12)N1CCCNCC1 [ML-7·HCl]	90.2%	99.4%
CC1=C(O)C(=O)[C@@H]2O[C@@H]2C1=O [Terreic acid]	104%	99.1%
O=C(O)c1cc(N(Cc2ccccc2O)Cc2cc(O)ccc2O)ccc1O [Lavendustin A]	85.9%	100%
CC(C)c1cc(/C=C(\C#N)C(=O)NCCCc2ccccc2)cc(C(C)C)c1O [SU1498]	91.7%	99.2%
COc1cc(/C=C(\C#N)C(N)=O)cc(CSc2nc3ccccc3s2)c1O [AG-825]	80.1%	99.4%
Cc1cc2ncc(-c3ccccc3)nc2cc1C [TYRPHOSTIN AG 1295]	93.6%	100%
O=c1c(-c2ccc(O)cc2)coc2cc(O)cc(O)c12 [Genistein]	86.1%	99.3%
Cc1ccc(NC(=O)c2cccc(N(C)C)c2)cc1NC(=O)c1ccc(O)cc1 [ZM 336372]	81.9%	99.4%
C#Cc1cccc(Nc2ncnc3cc(OC)c(OC)cc23)c1 [BML-265]	118%	99.6%
O=S(=O)(c1cccc2c(Cl)cccc12)N1CCCNCC1 [ML-9·HCl]	84.8%	99.8%
O=C(O)c1ccc2nc(-c3ccccc3)c(-c3ccccc3)nc2c1 [BML-257]	91.3%	99.7%
C[S+]([O-])c1ccc(-c2nc(-c3ccc(F)cc3)c(-c3ccncc3)[nH]2)cc1 (centres unmarked) [SB-203580]	108%	99.6%
O=C1Nc2ccccc2/C1=C1/Nc2ccccc2C1=O [Indirubin]	91.7%	99.1%
COc1cc2ncnc(Nc3cccc(Cl)c3)c2cc1OC [TYRPHOSTIN AG 1478]	84.2%	98.7%
Cc1ccc(-c2nn(C(C)(C)C)c3ncnc(N)c23)cc1 [PP1]	114%	100%
C[C@@H](N)[C@H]1CC[C@H](C(=O)Nc2ccncc2)CC1 [Y-27632·2HCl]	93.3%	98.6%
N#CC(C#N)=Cc1ccc(O)c(O)c1 [TYRPHOSTIN 23]	88.9%	100%
O=C1Cc2c([nH]c3ccc(Br)cc23)-c2ccccc2N1 [Kenpaullone]	162%	99.9%
